In patent US20100113421A1, “NON-NUCLEOSIDE REVERSE TRANSCRIPTASE INHIBITORS” (priority 2006, published 2010) one finds IC95 data, which are given here for 33 molecules.

For the test, the system named is HIV strain containing the Y181C mutation. The test is described as follows: Spread assay, Y181C mutant strain. Type of test: cell-based. To be noted: Human immunodeficiency virus 1; spread assay, 10% FBS, Y181C mutant strain; read-out: CIC95. The procedure: Assays for the inhibition of acute HIV-1 infection of T-lymphoid cells (alternatively referred to herein as the “spread assay”) were conducted in accordance with Vacca, J. P. et al., Proc. Natl. Acad. Sci. USA 1994, 91: 4096. The assays (using 10% FBS) tested for inhibition of wild type HIV-1 and of HIV strains containing the Y181C or K103N mutation. […] (Note that the compound of Example 6 was tested only up to a 833 nM concentration and the CIC95 value was determined to be >833 nM. The compound of Example 78 was not tested in the Y1818C assay.) The compounds of Examples 1 to 119 (including Examples 70A and 70B) had CIC95 values of less than 1000 nanomolar in the assay employing the K103N mutant strain. In an analogous assay employing a mutant strain containing both the K103N and Y181C mutations, the compounds of Examples 70A, 70B and 78-115 had CIC95 values of less than 1000 nanomolar.
Consider `Cc1c(C(=O)N(C)Cc2ccccc2F)[nH]c(C(N)=O)c1S(=O)(=O)c1cc(Cl)cc(Cl)c1` [Example 33, N-(2-fluorobenzyl)-N,3-dimethyl-4-(3,5-dichlorophenylsulfonyl)-1H-pyrrole-2,5-dicarboxamide], for which the IC95 is under 8 µM.
As for `Cc1c(C(=O)N(C)Cc2ccccc2Cl)[nH]c(C(N)=O)c1S(=O)(=O)c1cc(Cl)cc(Cl)c1` [Example 34, N-(2-chlorobenzyl)-N,3-dimethyl-4-(3,5-dichlorophenylsulfonyl)-1H-pyrrole-2,5-dicarboxamide], the figure is under 8 µM.
Under `Cc1c(C(=O)N(C)Cc2ccc(Cl)cc2F)[nH]c(C(N)=O)c1S(=O)(=O)c1cc(Cl)cc(Cl)c1` [Example 35, N-(4-chloro-2-fluorobenzyl)-N,3-dimethyl-4-(3,5-dichlorophenylsulfonyl)-1H-pyrrole-2,5-dicarboxamide] stands under 8 µM; under `COc1cccc(CN(C)C(=O)c2[nH]c(C(N)=O)c(S(=O)(=O)c3ccccc3)c2C)c1` [Example 36, N-(3-methoxyobenzyl)-N,3-dimethyl-4-(phenylsulfonyl)-1H-pyrrole-2,5-dicarboxamide], under 8 µM.
As for `Cc1c(C(=O)N(C)Cc2ccsc2)[nH]c(C(N)=O)c1S(=O)(=O)c1ccccc1` [Example 38, N,3-dimethyl-4-(phenylsulfonyl)-N-(3-thienylmethyl)-1H-pyrrole-2,5-dicarboxamide], the figure is under 8 µM; as for `Cc1c(C(=O)N(C)Cc2ccncc2Cl)[nH]c(C(N)=O)c1S(=O)(=O)c1ccccc1` [Example 39, N-[(3-chloro-4-pyridinyl)methyl]-N,3-dimethyl-4-(phenylsulfonyl)-1H-pyrrole-2,5-dicarboxamide], under 8 µM.
On to `Cc1cc(C)cc(S(=O)(=O)c2c(C(N)=O)[nH]c(C(=O)N(C)Cc3ccc4ncccc4c3)c2C)c1` [Example 40, 4-[(3,5-Dimethylphenyl)sulfonyl]-N,3-dimethyl-N-(6-quinolinylmethyl)-1H-pyrrole-2,5-dicarboxamide], for which the IC95 was under 8 µM.
In the case of `Cc1c(C(=O)N(C)Cc2cc3cccnc3cc2Cl)[nH]c(C(N)=O)c1S(=O)(=O)c1ccccc1` [Example 41, N-[(7-Chloro-6-quinolinyl)methyl]-N,3-dimethyl-4-(phenylsulfonyl)-1H-pyrrole-2,5-dicarboxamide], the IC95 is under 8 µM.
With `Cc1c(C(=O)N(C)Cc2ccc3ncccc3c2Cl)[nH]c(C(N)=O)c1S(=O)(=O)c1ccccc1` [Example 42, N-[(5-Chloro-6-quinolinyl)methyl]-N,3-dimethyl-4-(phenylsulfonyl)-1H-pyrrole-2,5-dicarboxamide], the IC95 is under 8 µM.
As for `Cc1c(C(=O)N(C)Cc2ccc3ncccc3c2)[nH]c(C(N)=O)c1S(=O)(=O)c1ccccc1` [Example 43], the figure is under 8 µM; as for `Cc1cccc(S(=O)(=O)c2c(C(N)=O)[nH]c(C(=O)N(C)Cc3ccc4ncccc4c3)c2C)c1` [Example 44], under 8 µM.
As for `Cc1c(C(=O)N(C)Cc2ccc3ncccc3c2)[nH]c(C(N)=O)c1S(=O)(=O)c1cccc(F)c1` [Example 45], the figure is under 8 µM; as for `Cc1c(C(=O)N(C)Cc2ccc3ncccc3c2)[nH]c(C(N)=O)c1S(=O)(=O)c1cccc(C(F)(F)F)c1` [Example 46, N,3-dimethyl-N-(6-quinolinylmethyl)-4-{[3-(trifluoromethyl)phenyl]sulfonyl}-1H-pyrrole-2,5-dicarboxamide], under 8 µM.
Turning to `Cc1cc(C)cc(S(=O)(=O)c2c(C(N)=O)[nH]c(C(=O)N(C)Cc3ccc4ncccc4c3Cl)c2C)c1` [Example 47, N-[(5-chloro-6-quinolinyl)methyl]-4-[(3,5-dimethylphenyl)sulfonyl]-N,3-dimethyl-1H-pyrrole-2,5-dicarboxamide], the IC95 is under 8 µM.
As for `Cc1cc(C)cc(S(=O)(=O)c2c(C(N)=O)[nH]c(C(=O)N(C)Cc3cc4cccnc4cc3Cl)c2C)c1` [Example 48, N-[(7-chloro-6-quinolinyl)methyl]-4-[(3,5-dimethylphenyl)sulfonyl]-N,3-dimethyl-1H-pyrrole-2,5-dicarboxamide], the figure is under 8 µM; as for `Cc1c(C(=O)N(C)Cc2ccc3ncccc3c2Cl)[nH]c(C(N)=O)c1S(=O)(=O)c1cc(F)cc(F)c1` [Example 49, N-[(5-chloro-6-quinolinyl)methyl]-4-[(3,5-difluorophenyl)sulfonyl]-N,3-dimethyl-1H-pyrrole-2,5-dicarboxamide], under 8 µM; as for `Cc1c(C(=O)N(C)Cc2cc3cccnc3cc2Cl)[nH]c(C(N)=O)c1S(=O)(=O)c1cc(F)cc(F)c1` [Example 50, N-[(7-chloro-6-quinolinyl)methyl]-4-[(3,5-difluorophenyl)sulfonyl]-N,3-dimethyl-1H-pyrrole-2,5-dicarboxamide], under 8 µM.
As for `Cc1c(C(=O)N(C)Cc2ccc3ncccc3c2)[nH]c(C(N)=O)c1S(=O)(=O)c1cc(F)cc(Cl)c1` [Example 51, 4-[(3-chloro-5-fluorophenyl)sulfonyl]-N,3-dimethyl-N-(6-quinolinylmethyl)-1H-pyrrole-2,5-dicarboxamide], the figure is under 8 µM.
As for `Cc1c(C(=O)N(C)Cc2ccc3ncccc3c2Cl)[nH]c(C(N)=O)c1S(=O)(=O)c1cc(F)cc(Cl)c1` [Example 52, 4-[(3-chloro-5-fluorophenyl)sulfonyl]-N-[(5-chloro-6-quinolinyl)methyl]-N,3-dimethyl-1H-pyrrole-2,5-dicarboxamide], the figure is under 8 µM; as for `Cc1c(C(=O)N(C)Cc2cc3cccnc3cc2Cl)[nH]c(C(N)=O)c1S(=O)(=O)c1cc(F)cc(Cl)c1` [Example 53, 4-[(3-chloro-5-fluorophenyl)sulfonyl]-N-[(7-chloro-6-quinolinyl)methyl]-N,3-dimethyl-1H-pyrrole-2,5-dicarboxamide], under 8 µM.
As to `Cc1c(C(=O)N(C)Cc2ccc3ncccc3c2)[nH]c(C(N)=O)c1S(=O)(=O)c1cc(Cl)cc(Cl)c1` [Example 54, 4-[(3,5-dichlorophenyl)sulfonyl]-N,3-dimethyl-N-(6-quinolinylmethyl)-1H-pyrrole-2,5-dicarboxamide], the IC95 was under 8 µM.
On to `Cc1c(C(=O)N(C)Cc2ccc3ncccc3c2Cl)[nH]c(C(N)=O)c1S(=O)(=O)c1cc(Cl)cc(Cl)c1` [Example 55, N-[(5-chloro-6-quinolinyl)methyl]-4-[(3,5-dichlorophenyl)sulfonyl]-N,3-dimethyl-1H-pyrrole-2,5-dicarboxamide], for which the IC95 was under 8 µM.
Turning to `Cc1c(C(=O)N(C)Cc2cc3cccnc3cc2Cl)[nH]c(C(N)=O)c1S(=O)(=O)c1cc(Cl)cc(Cl)c1` [Example 56, N-[(7-chloro-6-quinolinyl)methyl]-4-[(3,5-dichlorophenyl)sulfonyl]-N,3-dimethyl-1H-pyrrole-2,5-dicarboxamide], the IC95 was under 8 µM.
Take `Cc1c(C(=O)N(C)Cc2ccc3ncccc3c2)[nH]c(C(N)=O)c1S(=O)(=O)c1cc(Cl)cc(C#N)c1` [Example 57]: the IC95 was under 8 µM.
As for `CC(C)c1c(C(=O)N(C)Cc2ccccc2)[nH]c(C(N)=O)c1S(=O)(=O)c1ccccc1` [Example 58, N-Benzyl-3-isopropyl-N-methyl-4-(phenylsulfonyl)-1H-pyrrole-2,5-dicarboxamide], the figure is under 8 µM; as for `CCc1c(C(=O)N(C)Cc2ccc(Cl)cc2Cl)[nH]c(C(N)=O)c1S(=O)(=O)c1ccccc1` [Example 59, N-(2,4-dichlorobenzyl)-3-ethyl-N-methyl-4-(phenylsulfonyl)-1H-pyrrole-2,5-dicarboxamide], under 8 µM.
With `CCc1c(C(=O)N(C)Cc2ccc3ncccc3c2)[nH]c(C(N)=O)c1S(=O)(=O)c1ccccc1` [Example 60, 3-ethyl-N-methyl-4-(phenylsulfonyl)-N-(6-quinolinylmethyl)-1H-pyrrole-2,5-dicarboxamide], the IC95 is under 8 µM.
Consider `CC(C)c1c(C(=O)N(C)Cc2ccccc2F)[nH]c(C(N)=O)c1S(=O)(=O)c1ccccc1` [Example 61, N-(2-fluorobenzyl)-3-isopropyl-N-methyl-4-(phenylsulfonyl)-1H-pyrrole-2,5-dicarboxamide], for which the IC95 is under 8 µM.
Regarding `CC(C)c1c(C(=O)N(C)Cc2ccc(Cl)cc2F)[nH]c(C(N)=O)c1S(=O)(=O)c1ccccc1` [Example 62, N-(4-chloro-2-fluorobenzyl)-3-isopropyl-N-methyl-4-(phenylsulfonyl)-1H-pyrrole-2,5-dicarboxamide], the IC95 was under 8 µM.
Under `CC(C)c1c(C(=O)N(C)Cc2ccc(Cl)cc2Cl)[nH]c(C(N)=O)c1S(=O)(=O)c1ccccc1` [Example 63, N-(2,4-dichlorobenzyl)-3-isopropyl-N-methyl-4-(phenylsulfonyl)-1H-pyrrole-2,5-dicarboxamide] stands under 8 µM; under `CC(C)c1c(C(=O)N(C)Cc2ccc3ncccc3c2)[nH]c(C(N)=O)c1S(=O)(=O)c1ccccc1` [Example 64, 3-isopropyl-N-methyl-4-(phenylsulfonyl)-N-(6-quinolinylmethyl)-1H-pyrrole-2,5-dicarboxamide], under 8 µM.
As for `CCCc1c(C(=O)N(C)Cc2ccc3ncccc3c2)[nH]c(C(N)=O)c1S(=O)(=O)c1ccccc1` [Example 65, N-methyl-4-(phenylsulfonyl)-3-propyl-N-(6-quinolinylmethyl)-1H-pyrrole-2,5-dicarboxamide], the figure is under 8 µM.
As for `CCCCc1c(C(=O)N(C)Cc2ccc3ncccc3c2)[nH]c(C(N)=O)c1S(=O)(=O)c1ccccc1` [Example 66, 3-butyl-N-methyl-4-(phenylsulfonyl)-N-(6-quinolinylmethyl)-1H-pyrrole-2,5-dicarboxamide], the figure is under 8 µM.
